Measured values reported in patent publication US20240294476A1, “CRYSTAL FORM OF QUINOLINE COMPOUND AND PROCESS FOR ITS PRODUCTION” (NISSAN CHEMICAL CORPORATION, priority 2003, published 2024).

Legend:
[1] = Stability data of drug substance (influence of water content), storage at 40° C.; assay type: physicochemical
Source text: (§1) However, in the conventional method for producing pitavastatin calcium, there has been no disclosure relating to the water content or the crystal form.

[2] = Crystallinity by powder X-ray diffraction after drying; assay type: physicochemical; conditions: dried in a usual manner, water content at most 4%
Source text: as §1

[3] = 40° C. air tight, Initial stage

## O=C(O)C[C@H](O)C[C@H](O)/C=C/c1c(C2CC2)nc2ccccc2c1-c1ccc(F)cc1 [Pitavastatin calcium, monocalcium bis[(3R,5S,6E)-7-(2-cyclopropyl-4-(4-fluorophenyl)-3-quinolyl)-3,5-dihydroxy-6-heptenoate]]
[1]; 40° C. air tight, 30 Days
  Analogous substance (%): 0.208%
  Pitavastatin calcium (%): 99.42%
  Water content (%): 7.85%
[1]; 40° C. air tight, 60 Days
  Analogous substance (%): 0.189%
  Pitavastatin calcium (%): 99.79%
  Water content (%): 7.88%
[1]; 40° C. air tight, 90 Days
  Analogous substance (%): 0.211%
  Pitavastatin calcium (%): 99.64%
  Water content (%): 7.81%
[1]; [3]
  Analogous substance (%): 0.179%
  Pitavastatin calcium (%): 99.38%
  Water content (%): 7.89%
[1]; 40° C. open air, 30 Days
  Analogous substance (%): 0.742%
  Pitavastatin calcium (%): 99.26%
  Water content (%): 2.45%
[1]; 40° C. open air, 60 Days
  Analogous substance (%): 1.347%
  Pitavastatin calcium (%): 97.19%
  Water content (%): 1.99%
[1]; 40° C. open air, 90 Days
  Analogous substance (%): 2.099%
  Pitavastatin calcium (%): 96.49%
  Water content (%): 1.77%
[1]; 40° C. open air, Initial stage
  Analogous substance (%): 0.179%
  Pitavastatin calcium (%): 99.38%
  Water content (%): 7.89%
[1]; pitavastatin calcium which has become amorphous
  stability during the storage: very poor stability
[2]
  crystallinity (powder X-ray diffraction): decrease to a state close to an amorphous state
